Data: patent publication US4443607A, “1(2H)-Isoquinolone compounds and acid addition salts thereof” (priority 1981, dated 1984)
Where “and” joins values, the source holds several entries; their conditions need not be identical. Equal entries are not always repeated. Structures can show the parent of a compound that is named as a salt.

How the values were obtained:
gastric secretion = experiment: Gastric secretion inhibitory activity in pylorus-ligated rats; assay type: in vivo, Wistar male rats; conditions: for Percent Inhibition (gastric juice) / Percent Inhibition (output secretion) / Amount of Gastric Juice / Amount of Output Secretion: 25 mg/kg into duodenum, 5 h; for Amount of Gastric Juice / Amount of Output Secretion: 10 rats, mean ± SD
Procedure: Five hours after the administration, the rats were sacrificed and gastric juice was collected. The volume and the pH value of the gastric juice and the degree of acid secretion were then determined.

stress ulcer [1] = experiment: Stress Ulcer (2), fasted rats in stress cage dipped in water; assay type: in vivo, Wistar male rats; conditions: for Percent Inhibition / Ulcerous Index: 25 mg/kg oral, fasted 18 h; for Ulcerous Index: 7 h water immersion at 23° C., 7 rats, mean ± SD
Procedure: The test compound was administered orally to Wistar male rats (body weight, 180 to 200 g) which fasted for 18 hours before testing. 30 minutes thereafter, stress was loaded to the rats in a stress cage by dipping the cage into water at 23° C. to the level of the xiphisternum of rats. After leaving the rats in water for 7 hours, the rats were sacrificed and the stomach was extracted. The stomach was then worked up in the same manner as above to determine the ulcerous index.

blood pressure = experiment: Anti-hypertensive activity in anesthetized cats; assay type: in vivo; conditions: 5 to 10 mg/kg via femoral vein; urethane anesthesia
Procedure: Cats weighing 3 to 5 kg were anesthetized by intraperitoneal administration of urethane at a dose of 1.5 g/kg. The test compound was administered through a catheter into a femoral vein and the blood pressure was determined by a pressure transducer through a catheter inserted into the femoral artery.

stress ulcer [2] = experiment: Stress Ulcer (1), water-dipping restriction stress, non-fasted rats tied with steel wire; assay type: in vivo, Wistar male rats; conditions: 50 mg/kg oral
Procedure: The test compound was administered orally to Wistar male rats (body weight, 200 to 230 g) and 30 minutes thereafter the rats were tied up with a steel wire and dipped in water at 23° C. in a tank to the level of the xiphisternum of rats. After leaving the rats in water for 7 hours, the rats were sacrificed and the stomach was extracted. 10 ml of a 1% formalin solution was injected into the stomach cavity and the stomach was dipped in a 1% formalin solution for 15 minutes to semi-harden the stomach.

[3] = tested on: stomach mucous membrane blood flow; experiment: Blood flow increasing activity on stomach mucous membrane (aminopyrin clearance method); assay type: in vivo, Wistar male rats; conditions: 3 mg/kg intravenous
aspirin-induced ulcer = experiment: Aspirin Ulcer in pylorus-ligated rats; assay type: in vivo, Wistar male rats; conditions: for Percent Inhibition / Ulcerous Index: aspirin 100 mg/kg oral; for Ulcerous Index: mean ± SE
Procedure: The pylorus of Wistar male rats (body weight, 230 to 250 g) which fasted for 24 hours was ligated and, immediately thereafter, the test compound was administered into the duodenum. 15 hours thereafter, acetylsalicylic acid (Aspirin) was administered orally at a dose of 100 mg/kg. Seven hours after administration of acetylsalicylic acid, the rats were sacrificed and the gastric juice was collected. the stomach was then worked up in the same manner as above to determine the ulcerous index.

[4] = tested on: blood flow in stomach mucous membrane; experiment: Recovery activity on blood flow decrease in stomach mucous membrane by blood drawing; assay type: in vivo, Wistar male rats; conditions: 10 mg/kg intravenous
Procedure: Wistar male rats (body weight, 250 to 280 g) fasted for 24 hours and the blood flow in stomach mucous membrane was determined by the aminopyrin clearance method as described above under urethane anesthesia. After determination of blood flow, a blood sample was drawn in an amount equivalent to 3% of the body weight and, 5 minutes thereafter, the blood sample was reinstated. The blood flow was then determined at an interval of 15 minutes. The test compound was administered intravenously 15 minutes after the blood drawing.

| SMILES | Percent Inhibition (gastric juice) (gastric secretion) [%] | Percent Inhibition (output secretion) (gastric secretion) [%] | Amount of Gastric Juice (gastric secretion) [mL] | Amount of Output Secretion (gastric secretion) [μ Eq.] | Percent Inhibition (stress ulcer [1]) [%] | Ulcerous Index (stress ulcer [1]) [mm] | duration of blood pressure lowering activity (blood pressure) | inhibition of ulcer generation (in words) (stress ulcer [2]) | other results |
| --- | --- | --- | --- | --- | --- | --- | --- | --- | --- |
| CC(C)[N+](C)(CCOC(=O)C1c2ccccc2Oc2ccccc21)C(C)C [Propantheline Bromide] | 56.5 | 58.8 | 1.46 ± 0.63 | 118.8 ± 63.51 | 51.9 | 14.9 ± 10.67 |  |  |  |
| C=CCN(CC=C)CC(C)Cn1cc(-c2ccccc2)c2ccccc2c1=O (stereo not shown) [Compound B, 2-(3-N,N-diallylamino-2-methylpropyl)-4-phenyl-1(2H)-isoquinolone hydrochloride] |  |  |  |  |  |  | more than 2 hours | inhibit the ulcer generation caused by water-dipping restriction stress |  |
| C=CCN(CC=C)C(C)Cn1cc(-c2ccccc2)c2ccccc2c1=O (stereo not shown) [Compound A, 2-(2-N,N-diallylaminopropyl)-4-phenyl-1(2H)-isoquinolone maleate] |  |  |  |  |  |  | more than 2 hours | inhibit the ulcer generation caused by water-dipping restriction stress | time of maximum percent increase in blood flow [3]: 30 min; stomach mucous membrane blood flow increasing activity (in words) ([3]; 15, 30 and 45 minutes after administration): significance increasing activity on the stomach mucous membrane blood flow; percent increase in blood flow (maximum) ([3]; 30 minutes): about 50%; Percent Inhibition (aspirin-induced ulcer; 10 mg/kg i.d.): 29.41%; Ulcerous Index (aspirin-induced ulcer; 10 mg/kg i.d.): 42.28 ± 2.56 mm; Percent Inhibition (aspirin-induced ulcer; 25 mg/kg i.d.): 42.98%; Ulcerous Index (aspirin-induced ulcer; 25 mg/kg i.d.): 34.15 ± 4.37 mm; Percent Inhibition (aspirin-induced ulcer; 50 mg/kg i.d.): 57.52%; Ulcerous Index (aspirin-induced ulcer; 50 mg/kg i.d.): 25.44 ± 3.41 mm; inhibition of aspirin-induced ulcer (in words) (aspirin-induced ulcer; 10, 25, 50 mg/kg i.d.): inhibits the aspirin-induced ulcer at dose levels of 10, 25, 50 mg/kg, with dependency upon dose; Percent Inhibition (stress ulcer [2]; 7 h water immersion at 23° C.): 62.2% and 75.5%; Ulcerous Index (stress ulcer [2]; 7 h water immersion at 23° C., 6 rats, mean ± SD): 10.5 ± 6.22 mm and 6.8 ± 3.19 mm |
| CC(N)Cn1cc(-c2ccccc2)c2ccccc2c1=O.O=C(O)/C=C\C(=O)O (stereo not shown) [Compound C, 2-(2-aminopropyl)-4-phenyl-1(2H)-isoquinolone maleate] | 54.2 | 56.3 | 1.54 ± 0.58 | 126.0 ± 40.42 | 52.8 | 14.6 ± 8.70 |  |  | gastric secretion inhibitory activity (in words) (gastric secretion; compared with propantheline bromide and Cimetidine): substantially equivalent to that of propantheline bromide but higher than that of Cimetidine; recovery activity on blood flow decrease (in words) [4]: significant recovery activity on blood flow decrease in stomach mucous membrane by blood drawing; Blood Flow in Mucous Membrane, 15 min. ([4]; 15 min., 3 rats, mean ± SD): 88.4 ± 36.9%; Blood Flow in Mucous Membrane, 30 min. ([4]; 30 min., 3 rats, mean ± SD): 92.7 ± 23.5%; Blood Flow in Mucous Membrane, 45 min. ([4]; 45 min., 3 rats, mean ± SD): 98.2 ± 10.2%; Blood Flow in Mucous Membrane, 60 min. ([4]; 60 min., 3 rats, mean ± SD): 101.4 ± 8.8%; Blood Flow in Mucous Membrane, 0 ([4]; time 0 (baseline), 3 rats): 100%; stress ulcer inhibitory activity (in words) (stress ulcer [1]; compared with propantheline bromide): substantially equivalent to that of propantheline bromide |
| CN/C(=N/CCSCc1nc[nH]c1C)NC#N [Cimetidine] | 32.7 | 52.6 | 2.26 ± 0.85 | 136.6 ± 74.19 |  |  |  |  |  |
